In general, inhibition refers to the drop in the measured response relative to a control, in per cent.

The target in the assay is T1, human oxytocin receptor (Homo sapiens, UniProt P30559).
T1 construct: host or cells: CHO cells (pcDNA3.1 vector)
T1 sequence (P30559 1-389): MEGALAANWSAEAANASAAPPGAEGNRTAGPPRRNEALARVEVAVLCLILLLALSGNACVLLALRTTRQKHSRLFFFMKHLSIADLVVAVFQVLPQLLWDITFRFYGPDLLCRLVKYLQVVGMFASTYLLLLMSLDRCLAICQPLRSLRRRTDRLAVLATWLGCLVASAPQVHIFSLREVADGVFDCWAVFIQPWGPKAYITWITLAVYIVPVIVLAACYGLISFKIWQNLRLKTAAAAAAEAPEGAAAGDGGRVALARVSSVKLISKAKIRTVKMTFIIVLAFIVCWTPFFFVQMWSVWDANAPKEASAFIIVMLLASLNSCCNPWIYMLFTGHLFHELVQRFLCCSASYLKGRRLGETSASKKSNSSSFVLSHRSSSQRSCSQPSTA
As to the kind of experiment: Oxytocin binding in Chinese Hamster Ovary cell membranes expressing human oxytocin receptors. The conditions noted are these: 100 nM, CHO cell membranes, [3H]oxytocin, values without parentheses, read-out: OT % inhibition @ 100% nM.

On to `C=CCN1CCN(C(=O)c2ccc3n2Cc2ccccc2N(C(=O)c2ccc(-n4c(C)ccc4C)c(OC)c2)C3)CC1` [Example 318, (4-Allyl-1-piperazinyl){10-[4-(2,5-dimethyl-1H-pyrrol-1-yl)-3-methoxybenzoyl]-10,11-dihydro-5H-pyrrolo[2,1-c][1,4]benzodiazepin-3-yl}methanone], for which the inhibition at 0.1 µM came out at 32%.

For the compound `COc1cccc(-c2cc(OC)c(C(=O)N3Cc4ccc(C(=O)N5CCCN(C)CC5)n4Cc4ccccc43)cc2Cl)c1` [Example 67, {10-[(6-Chloro-3,3′-dimethoxy[1,1′-biphenyl]-4-yl)carbonyl]-10,11-dihydro-5H-pyrrolo[2,1-c][1,4]benzodiazepin-3-yl}(4-methyl-1,4-diazepan-1-yl)methanone], the inhibition at 0.1 µM amounted to 79%.

As for `COc1cccc(-c2ccc(C(=O)N3Cc4ccc(C(=O)N5CCN(CCCN(C)C)CC5)n4Cc4ccccc43)cc2OC)c1` [Example 255, {10-[(2,3′-Dimethoxy[1,1′-biphenyl]-4-yl)carbonyl]-10,11-dihydro-5H-pyrrolo[2,1-c][1,4]benzodiazepin-3-yl}{4-[3-(dimethylamino)propyl]-1-piperazinyl}methanone], the inhibition at 0.1 µM is 80%.

As for `COc1cc(C(=O)N2Cc3ccc(C(=O)N4CCC(N5CCCCC5)CC4)n3Cc3ccccc32)ccc1-n1c(C)ccc1C` [Example 311, {10-[4-(2,5-Dimethyl-1H-pyrrol-1-yl)-3-methoxy-benzoyl]-10,11-dihydro-5H-pyrrolo[2,1-c][1,4]benzodiazepin-3-yl}[4-(1-piperidinyl)-1-piperidinyl]-methanone], the inhibition at 0.1 µM stood at 16%.

In the case of `COc1cc(C(=O)N2Cc3ccc(C(=O)NCCCn4ccnc4)n3Cc3ccccc32)ccc1-n1c(C)ccc1C` [Example 312, 10-[4-(2,5-Dimethyl-1H-pyrrol-1-yl)-3-methoxybenzoyl]-N-[3-(1H-imidazol-1-yl)propyl]-10,11-dihydro-5H-pyrrolo[2,1-c][1,4]benzodiazepine-3-carboxamide], the inhibition at 0.1 µM amounted to 16%.

Turning to `COc1cc(C(=O)N2Cc3ccc(C(=O)NCCCN(C)C)n3Cc3ccccc32)ccc1-n1c(C)ccc1C` [Example 308, N-[3-(Dimethylamino)propyl]-10-[4-(2,5-dimethyl-1H-pyrrol-1-yl)-3-methoxybenzoyl]-10,11-dihydro-5H-pyrrolo[2,1-c][1,4]benzodiazepine-3-carboxamide], the inhibition at 0.1 µM is 7%.

Turning to `COc1cc(C(=O)N2Cc3ccc(C(=O)N4CCCN(C)CC4)n3Cc3ccccc32)ccc1-n1c(C)ccc1C` [Example 307, {10-[4-(2,5-Dimethyl-1H-pyrrol-1-yl)-3-methoxybenzoyl]-10,11-dihydro-5H-pyrrolo[2,1-c][1,4]benzodiazepin-3-yl}(4-methyl-1,4-diazepan-1-yl)methanone], the inhibition at 0.1 µM stood at 30%.

Turning to `CN1CCN(C(=O)c2ccc3n2Cc2ccccc2N(C(=O)c2ccc(-c4cccc5ccccc45)cc2Cl)C3)CC1` [Example 58, {10-[2-Chloro-4-(1-naphthyl)benzoyl]-10,11-dihydro-5H-pyrrolo[2,1-c][1,4]benzodiazepin-3-yl}(4-methyl-1-piperazinyl)methanone], the inhibition at 0.1 µM worked out at 24%.

As to `CN(C)CCCN1CCN(C(=O)c2ccc3n2Cc2ccccc2N(C(=O)c2ccc(-c4cccc5ccccc45)cc2Cl)C3)CC1` [Example 256, {10-[2-Chloro-4-(1-naphthyl)benzoyl]-10,11-dihydro-5H-pyrrolo[2,1-c][1,4]benzodiazepin-3-yl}{4-[3-(dimethylamino)propyl]-1-piperazinyl}methanone], the inhibition at 0.1 µM came to 33%.

Take `CN1CCCN(C(=O)c2ccc3n2Cc2ccccc2N(C(=O)c2ccc(-c4cccc5ccccc45)cc2Cl)C3)CC1` [Example 71, {10-[2-Chloro-4-(1-naphthyl)benzoyl]-10,11-dihydro-5H-pyrrolo[2,1-c][1,4]benzodiazepin-3-yl}(4-methyl-1,4-diazepan-1-yl)methanone]: the inhibition at 0.1 µM was 25%.

Regarding `COc1ccccc1-c1ccc(C(=O)N2Cc3ccc(C(=O)N[C@@H](Cc4c[nH]cn4)C(N)=O)n3Cc3ccccc32)cc1` [Example 285, N-[(1S)-2-Amino-1-(1H-imidazol-4-ylmethyl)-2-oxoethyl]-10-[(2′-methoxy[1,1′-biphenyl]-4-yl)carbonyl]-10,11-dihydro-5H-pyrrolo[2,1-c][1,4]benzodiazepine-3-carboxamide], the inhibition at 0.1 µM was found to be 93%.

Turning to `COc1ccccc1-c1ccc(C(=O)N2Cc3ccc(C(=O)N4CCN(CCCN(C)C)CC4)n3Cc3ccccc32)cc1OC` [Example 254, {10-[(2,2′-Dimethoxy[1,1′-biphenyl]-4-yl)carbonyl]-10,11-dihydro-5H-pyrrolo[2,1-c][1,4]benzodiazepin-3-yl}{4-[3-(dimethylamino)propyl]-1-piperazinyl}methanone], the inhibition at 0.1 µM came to 66%.

For the compound `COc1cc(C(=O)N2Cc3ccc(C(=O)N4CCN(CCN(C)C)CC4)n3Cc3ccccc32)ccc1-n1c(C)ccc1C` [Example 316, {4-[2-(Dimethylamino)ethyl]-1-piperazinyl}{10-[4-(2,5-dimethyl-1H-pyrrol-1-yl)-3-methoxybenzoyl]-10,11-dihydro-5H-pyrrolo[2,1-c][1,4]benzodiazepin-3-yl}methanone], the inhibition at 0.1 µM is 24%.

On to `CC(C)N1CCN(C(=O)c2ccc3n2Cc2ccccc2N(C(=O)c2ccc(-c4cccc5ccccc45)cc2Cl)C3)CC1` [Example 243, {10-[2-Chloro-4-(1-naphthyl)benzoyl]-10,11-dihydro-5H-pyrrolo[2,1-c][1,4]benzodiazepin-3-yl}(4-isopropyl-1-piperazinyl)methanone], for which the inhibition at 0.1 µM was 17%.

As to `COc1cccc(-c2cc(OC)c(C(=O)N3Cc4ccc(C(=O)N5CCN(C)CC5)n4Cc4ccccc43)cc2Cl)c1` [Example 54, {10-[(6-Chloro-3,3′-dimethoxy[1,1′-biphenyl]-4-yl)carbonyl]-10,11-dihydro-5H-pyrrolo[2,1-c][1,4]benzodiazepin-3-yl}(4-methyl-1-piperazinyl)methanone], the inhibition at 0.1 µM was 78%.

Take `COc1ccccc1-c1ccc(C(=O)N2Cc3ccc(C(=O)N4CCCN(C)CC4)n3Cc3ccccc32)cc1OC` [Example 69, {10-[(2,2′-Dimethoxy[1,1′-biphenyl]-4-yl)carbonyl]-10,11-dihydro-5H-pyrrolo[2,1-c][1,4]benzodiazepin-3-yl}(4-methyl-1,4-diazepan-1-yl)methanone]: the inhibition at 0.1 µM came out at 71%.

As to `Cc1ccccc1-c1ccc(C(=O)N2Cc3ccc(C(=O)NCCCN(C)C)n3Cc3ccccc32)cc1C` [Example 73, N-[3-(Dimethylamino)propyl]-10-[(2,2′-dimethyl[1,1′-biphenyl]-4-yl)carbonyl]-10,11-dihydro-5H-pyrrolo[2,1-c][1,4]benzodiazepine-3-carboxamide], the inhibition at 0.1 µM was determined as 85%.

For `COc1cc(C(=O)N2Cc3cccn3Cc3ccccc32)ccc1-c1ccccc1C(F)(F)F` [Example 19D, (10,11-Dihydro-5H-pyrrolo[2,1-c][1,4]benzodiazepin-10-yl)-(2-methoxy-2′-trifluoromethyl-[1,1′-biphenyl]-4-yl)-methanone], the inhibition at 0.1 µM is 97%.

For `COc1cc(C(=O)N2Cc3ccc(C(=O)N4CCN(CCCN(C)C)CC4)n3Cc3ccccc32)ccc1-c1ccccc1C` [Example 250, {4-[3-(Dimethylamino)propyl]-1-piperazinyl}{10-[(2-methoxy-2′-methyl[1,1′-biphenyl]-4-yl)carbonyl]-10,11-dihydro-5H-pyrrolo[2,1-c][1,4]benzodiazepin-3-yl}methanone], the inhibition at 0.1 µM amounted to 87%.

On to `COc1ccccc1-c1ccc(C(=O)N2Cc3ccc(C(=O)N4CCN(C)CC4)n3Cc3ccccc32)cc1C` [Example 49, {10-[(2′-Methoxy-2-methyl[1,1′-biphenyl]-4-yl)carbonyl]-10,11-dihydro-5H-pyrrolo[2,1-c][1,4]benzodiazepin-3-yl}(4-methyl-1-piperazinyl)methanone], for which the inhibition at 0.1 µM was found to be 92%.

In the case of `Cc1cc(C(=O)N2Cc3ccc(C(=O)N[C@@H](Cc4c[nH]cn4)C(N)=O)n3Cc3ccccc32)ccc1-c1ccccc1C(F)(F)F` [Example 284, N-[(1S)-2-Amino-1-(1H-imidazol-4-ylmethyl)-2-oxoethyl]-10-{[2-methyl-2′-(trifluoromethyl)[1,1′-biphenyl]-4-yl]carbonyl}-10,11-dihydro-5H-pyrrolo[2,1-c][1,4]benzodiazepine-3-carboxamide], the inhibition at 0.1 µM was 87%.

As for `Cc1ccccc1-c1ccc(C(=O)N2Cc3ccc(C(=O)N4CCN(C)CC4)n3Cc3ccccc32)cc1` [Example 52, {10-[(2′-Methyl[1,1′-biphenyl]-4-yl)carbonyl]-10,11-dihydro-5H-pyrrolo[2,1-c][1,4]benzodiazepin-3-yl}(4-methyl-1-piperazinyl)methanone], the inhibition at 0.1 µM came to 86%.

Turning to `COc1ccccc1-c1ccc(C(=O)N2Cc3ccc(C(=O)N[C@H]4CN5CCC4CC5)n3Cc3ccccc32)cc1OC` [Example 299, N-[(3R)-1-Azabicyclo[2.2.2]oct-3-yl]-10-[(2,2′-dimethoxy[1,1′-biphenyl]-4-yl)carbonyl]-10,11-dihydro-5H-pyrrolo[2,1-c][1,4]benzodiazepine-3-carboxamide], the inhibition at 0.1 µM was 86%.

Regarding `COc1ccccc1-c1ccc(C(=O)N2Cc3ccc(C(=O)NCCCN(C)C)n3Cc3ccccc32)cc1` [Example 75, N-[3-(Dimethylamino)propyl]-10-[(2′-methoxy[1,1′-biphenyl]-4-yl)carbonyl]-10,11-dihydro-5H-pyrrolo[2,1-c][1,4]benzodiazepine-3-carboxamide], the inhibition at 0.1 µM is 66%.

These data come from patent US7109193B2, “Tricyclic diazepines tocolytic oxytocin receptor antagonists” (Wyeth, priority 2001, dated 2006).
